From patent US11098040B2, “Compounds and methods of use” (Ferro Therapeutics, Inc., priority 2018, dated 2021)

Key:
KP4 = test: Cell viability assay (CellTiter Glo), pancreatic ductal adenocarcinoma KP4; format: cell-based, human; details: Homo sapiens, KP-4, 96 h, pancreatic cancer cell line KP4, 96 hours, CellTiter Glo; read-out: IC50 μM KP4
Procedure, shortened: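 Luminescent ATP readout (CellTiter Glo) after 96 h compound exposure, normalized to DMSO-treated cells as maximum. Compounds ran in duplicate, nine 3-fold steps from 30 μM down to 4.6 nM, final DMSO ≤0.25%; KP4 plated overnight at 1,000–10,000 cells/well. Outputs: IC50, relative IC50 or % top inhibition.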

MCF-10A = test: Cell viability assay (CellTiter Glo), non-tumorigenic breast epithelial cell line MCF-10A; format: cell-based; details: Homo sapiens, 96 hours
Experimental: (§1) Cell viability assay was performed to assess the potency of the compounds in human cancer cell lines KP4 (pancreatic ductal adenocarcinoma), MiaPaCa-2 (pancreatic carcinoma), AsPC-1 (pancreatic adenocarcinoma, ascites), 143B (osteosarcoma), and SJSA-1 (osteosarcoma). Selected compounds were also assayed in a human breast epithelial cell line MCF-10A, a nontumorigenic cell line as a control to assess differential activity. Cells at a density of 500-5,000 cells/well were seeded in 96-well plates and incubated at 37° C. overnight. A series of 9 different concentrations of compound stocks (500×) were created by 3-fold serial dilution in DMSO. These compounds were further diluted in culture media and then added to cells so that the final DMSO concentration was equal to 0.25% or less. After 96 hours of incubation, 50 μL of CellTiter Glo reagent (Promega) was added to each well and luminescence was measured after 10 minutes using EnVision (PerkinElmer). Compounds titrated from top concentration of up to 30 μM. The select compounds were tested initially from 30 μM as the top concentration in duplicates (range of 4.6 nM-30 μM). […] Luminescence from cells treated with DMSO alone was set as Max and % of inhibition was calculated as follows: Inhibition %=(Max-Sample value)/Max*100. Data was analyzed using XL-fit software (ID Business Solutions Ltd.). IC50, relative IC50, or % of top inhibition was calculated.
Paclitaxel was used as the positive control for cytotoxicity.

[1] = Whole blood stability, human; format: in vitro ADME
Excerpt: (§2) The results of the assay on stability in blood and IC50 values for pancreatic cancer cell line KP4 are given below in Table 24.

AsPC-1 = test: Cell viability assay (CellTiter Glo), pancreatic adenocarcinoma AsPC-1; format: cell-based; details: Homo sapiens, ASPC1; pancreatic adenocarcinoma, ascites, 96 hours, CellTiter Glo; read-out: IC50 AsPC-1
Experimental: as §1
(§3) The results of the assay in the pancreatic cell lines are given in Table 15a for PANC1, Table 15b for MiaPaCa-2, and Table 15c for AsPC-1.

[2] = Whole blood stability, mouse; format: in vitro ADME
Excerpt: as §2

MiaPaCa-2 = test: Cell viability assay (CellTiter Glo), pancreatic carcinoma MiaPaCa-2; format: cell-based; details: Homo sapiens, MIA PaCa-2; pancreatic carcinoma, 96 hours, CellTiter Glo; read-out: IC50 MiaPaCa-2
Experimental: as §1, §3

SJSA-1 = test: Cell viability assay (CellTiter Glo), osteosarcoma SJSA-1; format: cell-based; details: Homo sapiens, 96 hours
Experimental: as §1
(§4) The results of the assay in sarcoma cell lines are given in Table 21a for HT-1080 luc2 (fibrosarcoma expressing a luciferase gene), Table 21b for 143B (osteosarcoma), and Table 21c for SJSA-1 (osteosarcoma).

143B = test: Cell viability assay (CellTiter Glo), osteosarcoma 143B; format: cell-based; details: Homo sapiens, 96 h, osteosarcoma, 96 hours, CellTiter Glo, read-out: IC50 143B
Experimental: as §1, §4

SMILES	IC50 (AsPC-1) [nM]	IC50 (MiaPaCa-2) [nM]	IC50 (SJSA-1) [nM]	IC50 (143B) [nM]	IC50 (MCF-10A) [nM]	also measured
COC(=O)[C@H]1Cc2c([nH]c3ccccc23)[C@H](c2ccc(C(=O)OCC34CC(F)(C3)C4)cc2)N1C(=O)CCl [Compound 76]	35	–	–	–	1110	–
COC(=O)[C@H]1Cc2c([nH]c3ccccc23)[C@H](c2ccc(C(=O)OC[C@]34C[C@H]5C[C@H](C[C@H](C5)C3)C4)cc2)N1C(=O)CCl [Example 6]	–	55	146	87	3760	–
CC(C)(C)OC(=O)[C@H]1Cc2c([nH]c3ccccc23)[C@H](c2ccc([N+](=O)[O-])cc2)N1C(=O)CCl [Example 11]	–	91	327	135	–	–
CC(C)(C)OC(=O)c1ccc([C@H]2c3[nH]c4ccccc4c3C[C@H](C(=O)OC(C)(C)C)N2C(=O)CCl)cc1 [Example 19]	–	63	215	101	430	–
CN(C)C(=O)[C@H]1Cc2c([nH]c3ccccc23)[C@H](c2ccc(C(=O)OC(C)(C)C)cc2)N1C(=O)CCl [Example 21]	–	64	170	90	1580	–
CNS(=O)(=O)c1ccc([C@H]2c3[nH]c4ccccc4c3C[C@H](C(=O)OC)N2C(=O)CCl)cc1 [Example 22]	–	39	202	74	3300	–
COC(=O)[C@H]1Cc2c([nH]c3ccccc23)[C@H](c2ccc(S(=O)(=O)N(C)C)cc2)N1C(=O)CCl [Example 23]	–	36	90	34	2390	–
C=CCOC(=O)c1ccc([C@H]2c3[nH]c4ccccc4c3C[C@H](C(=O)OC)N2C(=O)CCl)cc1 [Example 74]	107	–	–	–	6560	–
COC(=O)[C@H]1Cc2c([nH]c3ccccc23)[C@H](c2ccc(C(=O)OCC3CC3)cc2)N1C(=O)CCl [Example 75]	28	–	–	–	1290	–
COC(=O)c1ccc([C@H]2c3[nH]c4ccccc4c3C[C@H](C)N2C(=O)CCl)cc1 [Example 77]	74	–	–	–	890	–
COC(=O)[C@H]1Cc2c([nH]c3ccccc23)[C@H](c2ccc(S(=O)(=O)NCC3CC3)cc2)N1C(=O)CCl [Example 82]	61	–	–	–	3740	–
COC(=O)[C@H]1Cc2c([nH]c3ccccc23)[C@H](c2ccc(C(=O)OCC3CCC3)cc2)N1C(=O)CCl [Example 85]	29	–	–	–	500	–
COC(=O)[C@H]1Cc2c([nH]c3ccccc23)[C@H](c2ccc(C(=O)OCC3CCCC3)cc2)N1C(=O)CCl [Example 86]	21	–	–	–	330	–
COC(=O)[C@H]1Cc2c([nH]c3ccc(Br)cc23)[C@H](c2ccc(C(=O)OCC3CC3)cc2)N1C(=O)CCl [Example 87]	22	–	–	–	460	–
COC(=O)c1ccc([C@H]2c3[nH]c4ccc(Br)cc4c3C[C@H](C(=O)OC)N2C(=O)CCl)cc1 [Example 88]	30	–	–	–	460	–
[2H]C([2H])(Cl)C(=O)N1[C@@H](c2ccc(C(=O)OC)cc2)c2[nH]c3ccccc3c2C[C@@H]1C(=O)OC [Example 90]	132	–	–	–	1480	–

The next lines start with results.

IC50 (AsPC-1) [nM]	IC50 (MiaPaCa-2) [nM]	IC50 (SJSA-1) [nM]	IC50 (143B) [nM]	SMILES	IC50 (MCF-10A) [nM]	also measured
30	–	–	–	[2H]C([2H])(Cl)C(=O)N1[C@@H](c2ccc(C(=O)OC(C)(C)C)cc2)c2[nH]c3ccccc3c2C[C@@H]1C(=O)OC [BZ]	590	IC50 (KP4): < 0.01 µM; Whole Blood Stability % Remaining at 37° C. Human ([1]; 0 min): 100.0%; Whole Blood Stability % Remaining at 37° C. Human ([1]; 30 min): 73.5%; Whole Blood Stability % Remaining at 37° C. Human ([1]; 60 min): 40.8%; Whole Blood Stability % Remaining at 37° C. Mouse ([2]; 0 min): 100.0%; Whole Blood Stability % Remaining at 37° C. Mouse ([2]; 30 min): 65.4%; Whole Blood Stability % Remaining at 37° C. Mouse ([2]; 60 min): 30.7%
23	–	–	–	[2H]C([2H])([2H])OC(=O)[C@H]1Cc2c([nH]c3ccccc23)[C@H](c2ccc(C(=O)OC(C)(C)C)cc2)N1C(=O)CCl [CA]	470	IC50 (KP4): < 0.01 µM; Whole Blood Stability % Remaining at 37° C. Human ([1]; 0 min): 100.0%; Whole Blood Stability % Remaining at 37° C. Human ([1]; 30 min): 86.9%; Whole Blood Stability % Remaining at 37° C. Human ([1]; 60 min): 48.9%; Whole Blood Stability % Remaining at 37° C. Mouse ([2]; 0 min): 100.0%; Whole Blood Stability % Remaining at 37° C. Mouse ([2]; 30 min): 80.8%; Whole Blood Stability % Remaining at 37° C. Mouse ([2]; 60 min): 33.2%
118	–	–	–	[2H]C([2H])([2H])OC(=O)[C@H]1Cc2c([nH]c3ccccc23)[C@H](c2ccc(C(=O)OC)cc2)N1C(=O)CCl [CC]	1680	IC50 (KP4): < 0.01 µM; Whole Blood Stability % Remaining at 37° C. Human ([1]; 0 min): 100.0%; Whole Blood Stability % Remaining at 37° C. Human ([1]; 30 min): 63.8%; Whole Blood Stability % Remaining at 37° C. Human ([1]; 60 min): 33.5%; Whole Blood Stability % Remaining at 37° C. Mouse ([2]; 0 min): 100.0%; Whole Blood Stability % Remaining at 37° C. Mouse ([2]; 30 min): 0.0%; Whole Blood Stability % Remaining at 37° C. Mouse ([2]; 60 min): 0.0%
–	60	236	153	COC(=O)c1ccc([C@H]2c3[nH]c4ccccc4c3C[C@H](C(=O)OC(C)(C)C)N2C(=O)CCl)cc1 [Example 2]	–	–
–	119	687	273	CNC(=O)c1ccc([C@H]2c3[nH]c4ccccc4c3C[C@H](C(=O)OC)N2C(=O)CCl)cc1 [Example 7]	–	–
–	77	250	143	COC(=O)[C@H]1Cc2c([nH]c3ccccc23)[C@H](c2ccc(C(=O)N(C)C)cc2)N1C(=O)CCl [Example 8]	–	–
–	12	69	32	COC(=O)[C@H]1Cc2c([nH]c3ccccc23)[C@H](c2ccc(C(=O)NC(C)(C)C)cc2)N1C(=O)CCl [Example 9]	2270	–
–	1590	15300	4410	COC(=O)[C@H]1Cc2c([nH]c3ccccc23)[C@H](c2ccc(C(=O)NC(C(=O)O)C(C)(C)C)cc2)N1C(=O)CCl (stereo partly drawn) [Example 10]	> 30000	–
–	69	149	81	COC(=O)[C@H]1Cc2c([nH]c3ccccc23)[C@H](c2ccc(OC(C)=O)cc2)N1C(=O)CCl [Example 12]	1420	–
–	131	157	109	COC(=O)[C@H]1Cc2c([nH]c3ccccc23)[C@H](c2ccc(OC(=O)C(C)(C)C)cc2)N1C(=O)CCl [Example 13]	3050	–
–	24	200	104	COC(=O)[C@H]1Cc2c([nH]c3ccccc23)[C@H](c2ccc(C(=O)NCCNC(=O)OC(C)(C)C)cc2)N1C(=O)CCl [Example 16]	1950	–
–	37	149	75	CC(C)OC(=O)[C@H]1Cc2c([nH]c3ccccc23)[C@H](c2ccc(C(=O)OC(C)(C)C)cc2)N1C(=O)CCl [Example 20]	820	–
73	–	–	–	COC(=O)[C@H]1Cc2c([nH]c3ccccc23)[C@H](c2ccc(C(=O)NCC3CC3)cc2)N1C(=O)CCl [Example 81]	2660	–
